Marks after values point to notes of the source that are not given here.

For data set [1], the system named is squamous cell carcinoma (A431). As to the kind of experiment: Cell viability, NRU assay. The note with it: A431, surfactant in solution at 35.6 µg/mL, 24 h. Format: cell-based. How it is done: The immortal human keratinocyte (HaCaT) and the squamous cell carcinoma (A431) were obtained from Celltec, University of Barcelona. The cells were grown in DMEM medium (4.5 g/L glucose) supplemented with 10% (v/v) FBS, 2 mM L-glutamine, 100 U/mL of penicillin and 100 μg/mL of streptomycin at 37 °C under 5% CO2. Cells were routinely cultured in 75 cm^2 culture flasks and were trypsinized using trypsin-EDTA when reached approximately 80% of confluence.
HaCaT cells (1 × 10^5 cells/mL) and A431 cells (5 × 10^4 cells/mL) were grown at the defined densities into the central 60 wells of a 96-well microplate. Cells were incubated for 24 h under 5% CO2 at 37 °C. The medium was then removed and the cells were incubated with the surfactants (100 μL), previously diluted 1:1 (v/v), reaching a concentration of […] in DMEM medium supplemented with 5% FBS using two different colorimetric methods for quantification, as follows.
The accumulation of the neutral red dye in the lysosomes of viable, undamaged cells constitutes the basis of the neutral red uptake (NRU) assay. After the cells were incubated for 24 h with the corresponding systems at 35.6 µg/mL, the medium was removed and the surfactants´ solutions were incubated for 3 h with the NRU dye solution (50 μg/mL) dissolved in the medium without FBS and phenol red (Lonza). Cells were then washed with sterile PBS, followed by the addition of 100 μL of a solution containing 50% ethanol absolute and 1% acetic acid in distilled water to extract the non-adhered dye. The microplates were then stirred for 5 min at 25 °C to promote the dissolution. Finally, the absorbance of the resulting solutions was measured at λ = 550 nm using a Bio-Rad 550 microplate reader (Hercules, CA, USA).

On the set-up of data set [2]: method as in doi:10.1021/la981295l. The note with it: cited from earlier work.
On the set-up of data set [3]: method as in doi:10.1021/la981295l. Particulars: cited from earlier work. The source holds these as a separate data set.
The nature of data set [4]: Apparent pKa by direct titration with NaOH. Format: physicochemical. Particulars: aqueous solution, concentration above the minimum aggregation concentration; pH at semi-equivalence point. How it is done: In order to determine the ionization state of these gemini surfactants at the pH used to investigate their biological properties, the apparent acid pKa was determined for each of them. The pKap value has been determined by means of a direct titration with NaOH of an aqueous solution of each compound. The surfactant concentrations used were in all cases higher than the minimum aggregation concentration, thus avoiding possible deviations in the pK value due to the monomer–aggregate balance. The pKap values can be estimated from the pH at the semi-equivalence point that is reached when the molar ratio of protonated and non-protonated species is 1:1. In these conditions, we have that the pH = pKa.
The pKa value of each compound has been determined by means of a direct titration with NaOH of an aqueous solution of each compound. The pH was measured using the pH electrode Thermo Electron Corporation ORION 8103SC and the temperature was controlled by a thermostatic bath, Heto CBN 8-30. The pKa values can be estimated from the pH at the semi-equivalence point, which contains a 1:1 molar ratio of protonated and non-protonated species; at this point, pH = pKap.

In data set [5] the test system is Pseudomonas aeruginosa PAO1 biofilm. As to the kind of experiment: Biofilm inhibition, crystal violet. Format: cell-based. The note with it: P. aeruginosa PAO1, 24 h contact, 2–128 μg/mL tested. How it is done:
(§1) The ability of MRSA and P. aeruginosa to form biofilms on propylene surfaces in the presence of bis-Args was determined. The two bacterial cells were kept in contact with the gemini surfactants at different concentrations from 2 to 128 μg/mL for 24 h. Then, the percentage of biofilm inhibition was determined.
(§2) Antibiofilm activity was assessed against biofilm-producing strains of methicillin-resistant Staphylococcus aureus (MRSA) ATCC 43300 and Pseudomonas aeruginosa PAO1. Biofilm inhibition and eradication capacities of the gemini surfactants were evaluated against adherent bacterial biofilms grown in 96-well microtiter plates. Bacteria were grown overnight in tryptic soy agar at 37 °C for 24 h. The bacteria were suspended in lysogeny broth with glucose (1%) at 1.5 × 10^8 CFU/mL.
(§3) Biofilm inhibition procedure: 100 μL of the gemini surfactant at different concentration values was added to each well in a 96-well microplate, then, 100 μL of the diluted bacterial suspension was added to the wells. Two-fold serial dilutions of the gemini surfactants to be tested were used (2–128 μg/mL). Microtiter plates were incubated at 37 °C for 24 h. Spent growth media was then discarded and biofilm was fixed with 150 μL methanol for 10 min. After the plates were air dried, the biofilms were stained with 50 μL of 0.1 of % crystal violet for 25 min. The plates were rinsed with water and then 150 μL of 96% ethanol containing 10% acetic acid was added to all 96-well plates to dissolve the remaining crystal violet-stained biofilm. The absorbance value was recorded at 570 nm. Each assay was performed at least three times and the results were averaged.

Data set [6] has as its system methicillin-resistant Staphylococcus aureus (MRSA) ATCC 43300 biofilm. As to the kind of experiment: Biofilm inhibition, crystal violet. The note with it: 24 h contact, 2–128 μg/mL tested. Format: cell-based. Here is the method:
as §1, §2, §3

Take `CCCCCCCCCCCC(=O)NC(CCCNC(=N)N)C(=O)NCCCNC(=O)C(CCCNC(=N)N)NC(=O)CCCCCCCCCCC` (stereo not drawn) [C3(LA)2, Bis (N^α-lauroyl arginine 1,3-propane) diamide]: in data set [1], the “cytotoxicity, in words” value was “did not cause any apparent cytotoxicity”. Moreover, in data set [2], the “CMC (mM) Conductivity” value was 0.5 * mM. In addition, the “CMC (mM) Fluorescence” value in data set [3] was 0.4 * mM. Besides, the pKap in data set [4] is reported as 11.4. In addition, the “concentration that inhibits biofilm formation” value in data set [5] and in data set [6] was 32 µg/mL in each case.

Values taken from PMC10536132, “Arginine Gemini-Based Surfactants for Antimicrobial and Antibiofilm Applications: Molecular Interactions, Skin-Related Anti-Enzymatic Activity and Cytotoxicity” (Molecules, 2023).
